According to patent US9035044B2, “L-proline and citric acid co-crystals of (2S, 3R, 4R, 5S,6R)-2-(3-((5-(4-fluorophenyl)thiopen-2-yl)methyl)4-methylphenyl)-6-(hydroxymethyl)tetrahydro-2H-pyran-3,4,5-triol” (Janssen Pharmaceutica NV, priority 2011, dated 2015):

Experiments:
Type in all cases: physicochemical
[1] = Dynamic vapor sorption/desorption (DVS); conditions: for hygroscopicity: 0% RH to 90% RH, 2 full cycles; for form conversion by pXRD after the DVS run: isolated at 0% RH
Procedure: DVS: Moisture sorption was characterized on a DVS-1 Instrument (Surface Measurement Systems, Allentown, Pa.). In each case, the sample was subject to a drying curve from ambient to 0% relative humidity (RH), followed by two cycles of sorption (from 0% RH to 90% RH) and desorption (from 90% RH to 0% RH) in 10% RH steps at 25° C. At each step the sample was allowed to equilibrate at a specific % RH and thus, stabilize in terms of weight gained or lost prior to the instrument moving to the next step within the method.
The crystalline L-proline co-crystal of the compound of formula (I-X) was further characterized using Dynamic Vapor Sorption (DVS), measuring from 0% RH to 90% RH (2 full cycles) at 25° C.
The crystalline citric acid co-crystal of the compound of formula (I-X) was further characterized using Dynamic Vapor Sorption (DVS), measuring from 0% RH to 90% RH (2 full cycles) at 25° C.

[2] = Chemical stability/degradation of stored samples by HPLC; conditions: 1 week
Procedure: (§1) Samples of the crystalline L-proline co-crystal of the compound of formula (I-X) being tested for physical stability, sampled at 1 day, 1 week, 2 weeks and 4 weeks, were further tested for chemical stability/degradation. Crystalline L-proline co-crystal of the compound of formula (I-X) (˜10 mg) was diluted with a 50:50 water:acetonitrile solution (10 mL), and then further diluted 10 fold for HPLC measurements.
as §1, with “citric acid” for “L-proline”

[3] = Physical stability on storage in serum crimp vials; conditions: up to 4 weeks; for physical stability: 5° C. sealed, 25° C./60% RH open, 40° C. sealed, 40° C./75% RH open, 60° C. sealed, 80° C. sealed
Procedure: (§2) The crystalline L-proline co-crystal of the compound of formula (I-X) was tested for physical stability by storing about 10 mg of the co-crystal in 10 mL serum crimp vials, under following conditions: (a) 5° C., sealed; (b) 25° C./60% RH, open; (c) 40° C., sealed; (d) 40° C./75% RH, open; (e) 60° C., sealed; and (f) 80° C., sealed; with stability data collected at 1 day, 1 week, 2 weeks and 4 weeks.
as §2, with “citric acid” for “L-proline”, “was similarly” for “was”, “in” for “in 10”

[4] = 25° C./60% RH open and 60° C. sealed, 2 week and 4 week samples
[5] = 40° C./75% RH open and 80° C. sealed, 2 week and 4 week samples
[6] = all six storage conditions, 1 day, 2 weeks and 4 weeks

Structure (SMILES) | hygroscopicity ([1]; 25° C.) | increase in mass ([1]; 0%-80% RH, 25° C., lost again on desorption) | form conversion by pXRD after the DVS run [1] | degradation peaks (HPLC) [2, 4] | peak purity (HPLC) [2, 4] | degradation peaks (HPLC) [2, 5] | peak purity (HPLC) [2, 5] | chemical stability (HPLC) ([2]; stored at 5° C. sealed and 40° C. sealed, 1 day, 2 weeks and 4 weeks) | physical stability [3] | degradation on a peak basis ([3]; stored at 25° C./60% RH, 40° C./75% RH, 60° C. or 80° C.) | mass gain ([1]; between 40% RH and 90% RH, 25° C., lost on desorption with some hysteresis) | weight gain ([1]; until % RH reached 40%, 25° C.) | chemical stability (HPLC) [2, 6] | degradation peaks (HPLC) [2, 6] | visible color changes ([3]; all six storage conditions)
Cc1ccc([C@@H]2O[C@H](CO)[C@@H](O)[C@H](O)[C@H]2O)cc1Cc1ccc(-c2ccc(F)cc2)s1 [crystalline citric acid co-crystal of the compound of formul] [(2S,3R,4R,5S,6R)-2-(3-((5-(4-fluorophenyl)thiophen-2-yl)methyl)-4-methylphenyl)-6-(hydroxymethyl)tetrahydro-2H-pyran-3,4,5-triol] | non-hygroscopic | 0.5% | no form conversion | A small degradation peak was observed | > 99% | A few small degradation peaks were also observed | > 99% | chemically stable | physically stable | < 0.3% |  |  |  |  | 
Cc1ccc([C@@H]2O[C@H](CO)[C@@H](O)[C@H](O)[C@H]2O)cc1Cc1ccc(-c2ccc(F)cc2)s1 [crystalline L-proline co-crystal of the compound of formula ] [(2S,3R,4R,5S,6R)-2-(3-((5-(4-fluorophenyl)thiophen-2-yl)methyl)-4-methylphenyl)-6-(hydroxymethyl)tetrahydro-2H-pyran-3,4,5-triol] | hygroscopic |  | no irreversible form conversion |  |  |  |  |  | physically stable |  | 12% | no weight gain was observed | chemically stable | No degradation peaks were observed | no visible color changes
